We go through one molecule from patent publication US12564568B2, “PKC pathway in Parkinson's Disease” (CEDARS-SINAI MEDICAL CENTER, priority 2018, dated 2026).

Entries after “also recorded” stand apart in the source; their conditions may differ. Some results are limits rather than exact numbers.

The subject of data set [1] is synuclein. In words: Injection into the ventricles of WT mice, synuclein in striatum. The conditions noted are these: 0.3, 3, and 30 uM injected into ventricles of WT mice; 1 and 5 days post injection. The class given is in vivo, mouse. The method, then: (§1) In vivo, PEP stimulates synuclein degradation. Dosage studies of 0.3, 3, and 30 uM PEP was injected into the ventricles of WT mice.

A short description of data set [2]: In vitro blood plasma binding, rabbit. The format is in vitro ADME. The text has this:
(§2) This may complicate IV delivery.

Data set [3] is described as follows: In vitro blood plasma binding, human. The format is in vitro ADME.
Description: as §2

In data set [4] the test system is TH. In words: Injection into the ventricles of WT mice, TH in striatum. The format is in vivo, mouse. The conditions noted are these: 0.3, 3, and 30 uM injected into ventricles of WT mice; 1 and 5 days post injection. The method, then:
as §1

Data set [5] can be described thus: Repeat dose tox study in mini-pigs. The class given is in vivo, mini-pig. To be noted: 5 ug/kg dose IV approximately 1x/week, intake recovered afterwards. The method, then:
In a repeat dose tox study in rats—animals were given up to 10 ug/kg/day for 7 days by IV tail vein injection. […] In a repeat dose tox study in mini-pigs—animals were given up to 5 ug/kg/day IV approximately 1×/week.

The subject of data set [6] is DaN cultures. Kind of data set: LDH on drug treatment of DaN cultures. The format is cell-based, human. From the text: It is likely that the toxicity of PEP is more specific to highly proliferative cells whereas the Inventors' differentiated neurons are largely post mitotoic.
Data set [7] can be described thus: IV bolus dose study, cardiovascular effects in mini-pig. The class given is in vivo. To be noted: doses up to 5 ug/kg (highest tested). The text has this:
(§3) In multiple IV bolus dose studies, the following was observed.

A short description of data set [8]: IV bolus dose study, respiratory effects in rat. To be noted: doses up to 10 ug/kg. The format is in vivo.
Description: as §3

Data set [9] has as its system p-PKCα.
Data set [10] concerns SNCA. In words: SNCA gene expression over PEP005 time-course (qPCR). The format is cell-based, human. The conditions noted are these: 4 hours after PEP005 treatment. The method, then: (§4) qPCR: Total cellular RNA was isolated using TRIzol Reagent followed by Qiagen RNeasy Mini kit with DNase treatment. Total RNA (1 μg) was used for cDNA synthesis using the Quantitate Reverse Transcription Kit for cDNA synthesis for PCR (Qiagen). Real-time PCR was performed using the SYBR Green Supermix (BIO-RAD). The levels of expression of respective genes were normalized to corresponding GAPDH values and shown as fold change relative to the value of the control sample (ΔΔCt method)

A short description of data set [11]: In vitro blood plasma binding, rat. The format is in vitro ADME.
Description: as §2

A short description of data set [12]: Dose ranging study in mini-pig. The format is in vivo. To be noted: pigs. The method, then: For dose ranging studies in rat and mini-pig. Repeated doses up to 15 ug/kg/day for 7 days were tolerated in rats, 5 ug/kg in pigs
Data set [13] is described as follows: PK profile in mice after IV tail vein injection. The format is in vivo, mouse. The conditions noted are these: 10 and 50 ug/kg IV tail vein. The method, then: In a study to determine PK profile of PEP in mice—10 and 50 ug/kg were administered by IV tail vein injection. […] Again potentially problematic for IV delivery.
The subject of data set [14] is α-synuclein. Kind of data set: α-synuclein protein level in day 30 iPSC-derived mDA (DaN) cultures after drug treatment (western blot, immunostaining). The class given is cell-based, human. The conditions noted are these: in vitro, single 24-hour dose. (Immunoblotting shows a protein as a band on a membrane.)
Data set [15] deals with TH. Kind of data set: TH gene expression over PEP005 time-course (qPCR). The format is cell-based, human. To be noted: roughly 8 hours after initial exposure. The method, then:
as §4
On the technique in general: Real-time PCR tracks product formation cycle by cycle.

For data set [16], the system named is α-synuclein. In words: Unilateral striatal injection in wild-type C57BL/6 mice, α-synuclein in striatum (western blot, IHC). The conditions noted are these: 215 ng dose, 3 days post-treatment.
Data set [17] has as its system cleaved caspase 3 (CC3). In words: Cleaved caspase 3 in mDA cultures over PEP005 time-course (western blot). To be noted: PD/EOSPD cultures, PEP005 treatment. The format is cell-based, human. The method, then:
Western blot: Cells were gently scraped off the plates, washed with PBS, centrifuged at 15000 RPM for 1 min, and dry pellets were frozen at −80° C. Samples were then thawed and lysed using 1×NETN buffer (20 mM Tris-HCl (pH 8.0), 100 mM NaCl, 0.5 mM EDTA and 0.5% NP-40) supplemented with phosphatase/protease inhibitor cocktail (MS-SAFE, Sigma-Aldrich). Lysates were sonicated in an automated cold bath sonicator for 20 mins using alternating 10 sec pulses followed by 10 sec rests. Samples were centrifuged for 20 min at 4° C. at 15000 RPM. Total soluble protein concentrations were measured using a Bradford assay (BIO-RAD). 4× Laemmli sample buffer (BIO-RAD 161-0774) was added to either 100 μg or 50 μg of total protein extracts and samples were boiled for 5 min. […] Membranes were blocked with Odyssey blocking buffer (LI-COR) and then incubated with primary antibodies for overnight at 4° C. or room temperature for 3 hours. Following incubation with dye-labeled secondary antibodies for 2 hours at room temperature, signals were visualized using an Odyssey Fc imaging system (LI-COR). […] Combined α-synuclein and p-PKCα expression plots were calculated by first normalizing bands to β-actin, then to the 02iCTR signal present in each blot. […] ROC plot and area under the curve was determined using R package ROCR to determine predicative probability percentages.

Consider `C/C=C(/C)C(=O)O[C@H]1C(C)=C[C@]23C(=O)[C@@H](C=C(CO)[C@@H](O)[C@]12O)[C@H]1[C@@H](C[C@H]3C)C1(C)C` [PEP005, ingenol-3-angelate], for which the “synuclein in mouse striatum” value in data set [1] is on record as “Reduction”. Further, the plasma binding result in data set [2], in data set [3] and in data set [11] was “highly efficient plasma binding” in each case. Further, the “TH in mouse striatum” value in [4] was “increase”. The food intake result in data set [5] was “lower food intake the following day”. The “LDH on drug treatment” value in data set [6] is “nor do the Inventors see an increase”. In addition, the cardiovascular changes entry in data set [7] is given as “no notable cardiovascular changes”. The “clinical or behavioral effects” value in data set [7] is on record as “no adverse clinical or behavioral effects”. Also, in [8], the respiratory effects entry is given as “no biologically relevant responses”. Also, in [9] (control and PD cultures / all iPSC lines, 1 μM PEP005 for 3 days), the “p-PKCα signal (western blot)” value is reported as “completely ablate; also recorded: completely ablating; also recorded: clearly ablated”. In addition, the “p-PKCα expression, dose response” value in [9] (dose response study, 172iPD mDA culture) is “clear dose-response relationship”. In addition, the “p-PKCα levels at low PEP005 doses” value in [9] (dose response study, low doses) is given as “did not alter”. Also, the “time post dose at which pPKCα levels were still depressed” value in data set [9] (in vitro, single 24-hour dose) was no less than 240 hours. In addition, the “time until p-PKCα is degraded in response to drug treatment” value in data set [9] (time-course, control and PD cultures) is no more than 24 h. The “SNCA expression (qPCR)” value in data set [10] is “downregulated”. Further, in [12], the tolerated repeated dose is no more than 5 µg/kg. Moreover, the serum concentration entry in data set [13] (1 hour after) is recorded as “below detectable limits”. The clearance entry in [13] (>blood flow through the liver) is given as “very high clearance”. Besides, in data set [14], the “duration for which synuclein levels remained depressed” value came to 168 h. Moreover, the “TH expression (qPCR)” value in data set [15] is listed as “upregulated”. Also, the “α-synuclein levels in striatum, injected (L) relative to contralateral side (R)” value in data set [16] is “significantly reduced; also recorded: reduces”. The “cleaved (active) caspase 3 (CC3)” value in data set [17] and in [17] (listed as PEP) was “marked decrease” each time.
